Reference: ChEMBL document CHEMBL5321290, “Discovery of the Diphenyl 6-Oxo-1,6-dihydropyridazine-3-carboxylate/carboxamide Analogue J27 for the Treatment of Acute Lung Injury and Sepsis by Targeting JNK2 and Inhibiting the JNK2-NF-κB/MAPK Pathway” (J Med Chem, 2023)
Active and inactive are the calls of the source. The rule behind the calls is not given here.

Legend:
Mus musculus [1] = experiment: Antiinflammatory activity against LPS-induced acute lung injury C57 mouse model assessed as decrease in LPS-induced IL-6 level in alveolar lavage fluid at 20 mg/kg, po thrice at 12 hrs interval; type: functional, organism-based; conditions: Bronchoalveolar lavage
[2] = AUC (0 to t) in Sprague-Dawley rat at 10 mg/kg, po measured upto 24 hrs by UPLC-MS/MS analysis; type: ADME, organism-based; set-up: dose 10 mg/kg, time < 24 hrs, route po; conditions: in vivo
Mus musculus [3] = experiment: Antiinflammatory activity against LPS-induced acute lung injury C57 mouse model assessed as decrease in LPS-induced IL-6level in blood at 20 mg/kg, po thrice at 12 hrs interval; type: functional, organism-based
[4] = target: c-Jun N-terminal kinase (Mus musculus) (UniProt Q91Y86+Q9WTU6+Q61831); experiment: Inhibition of JNK phosphorylation in mouse J774A.1 cells assessed as decrease in LPS-stimulated JNK phosphorylation level pretreated at 10 uM for 1 hrs followed by induced with LPS for 40 mins by Western blot analysis; type: cell-based; conditions: J774.1, time 100.0 min
[5] = Half life in Sprague-Dawley rat at 10 mg/kg, iv measured upto 24 hrs by UPLC-MS/MS analysis; type: ADME, organism-based; conditions: in vivo
J774.A1 = experiment: Antiinflammatory activity against mouse J774A.1 cells assessed as inhibition of LPS-stimulated IL6 mRNA expression pretreated for 2 hrs followed by stimulated with LPS by RT-qPCR analysis; type: functional, cell-based; conditions: dose 2.5-10 µM
[6] = Subacute toxicity in ICR mouse assessed as change in body weight at 500 to 100 mg/kg, IG measured for 10 days; type: organism-based; conditions: in vivo, po, 240 h, dose 500-100 mg/kg, time 10 day
[7] = Cytotoxicity against mouse J774A.1 cells assessed as cell viability at 10 uM measured after 24 hrs incubation by MTT assay; type: toxicity, cell-based, J774.A1; conditions: read-out: Activity
Mus musculus [8] = experiment: Antiinflammatory activity against LPS-induced acute lung injury C57 mouse model assessed as increase in IkappaBalpha level in lung tissue at 40 mg/kg, po thrice at 12 hrs interval followed 30 mins treated with LPS by Western blot analysis; type: functional, organism-based; conditions: time 36.5 hrs
[9] = target: T1, Inhibitor of nuclear factor kappa-B kinase subunit beta (Homo sapiens) (UniProt O14920); experiment: Inhibition of IKKbeta (unknown origin) assessed as inhibition rate at 10 uM by SPR analysis relative to control
T1 sequence (whole entry): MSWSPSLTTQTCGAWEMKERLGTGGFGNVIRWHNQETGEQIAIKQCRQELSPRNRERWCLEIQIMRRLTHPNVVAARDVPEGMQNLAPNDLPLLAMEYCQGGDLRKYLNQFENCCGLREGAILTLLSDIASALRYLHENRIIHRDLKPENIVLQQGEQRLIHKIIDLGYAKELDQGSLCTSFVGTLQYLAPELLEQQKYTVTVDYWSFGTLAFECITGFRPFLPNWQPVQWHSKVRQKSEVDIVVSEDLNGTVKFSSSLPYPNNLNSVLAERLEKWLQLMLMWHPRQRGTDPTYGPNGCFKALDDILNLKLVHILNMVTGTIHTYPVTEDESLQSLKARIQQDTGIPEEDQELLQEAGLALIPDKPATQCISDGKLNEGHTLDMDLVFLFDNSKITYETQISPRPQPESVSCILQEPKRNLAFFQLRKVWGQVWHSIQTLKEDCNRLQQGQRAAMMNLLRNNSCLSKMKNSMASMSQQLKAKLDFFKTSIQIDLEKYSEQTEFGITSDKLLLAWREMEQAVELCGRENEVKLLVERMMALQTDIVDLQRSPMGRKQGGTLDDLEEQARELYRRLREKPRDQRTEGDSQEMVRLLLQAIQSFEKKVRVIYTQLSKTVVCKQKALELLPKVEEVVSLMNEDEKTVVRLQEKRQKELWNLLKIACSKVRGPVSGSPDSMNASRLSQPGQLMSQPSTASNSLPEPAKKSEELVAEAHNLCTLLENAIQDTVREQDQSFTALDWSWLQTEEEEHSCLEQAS

THP-1 = experiment: Antiinflammatory activity against human THP-1 cells assessed as inhibition of LPS-stimulated TNFalpha mRNA expression pretreated for 2 hrs followed by stimulated with LPS by RT-qPCR analysis; type: functional, cell-based; conditions: dose 2.5-10 µM
Mus musculus [10] = experiment: Antiinflammatory activity against LPS-induced acute lung injury C57 mouse model assessed as decrease in LPS-induced neutrophile count in broncho alveolar lavage fluid at 20 mg/kg, po thrice at 12 hrs interval; type: functional, organism-based; conditions: Bronchoalveolar lavage
Mus musculus [11] = experiment: Antiinflammatory activity against LPS-induced septic shock mouse model assessed as improvement in survival at 20 mg/kg, po pretreated 1 hr before LPS administration measured upto 96 hrs; type: functional, organism-based; conditions: time <= 97.0 hrs
Mus musculus [12] = experiment: Antiinflammatory activity against LPS-induced acute lung injury C57 mouse model assessed as reduction in LPS-induced p-JNK level in lung tissue at 40 mg/kg, po thrice at 12 hrs interval followed 30 mins treated with LPS by Western blot analysis; type: functional, organism-based; conditions: time 36.5 hrs
[13] = Subacute toxicity in ICR mouse assessed as pathological change in spleen at 500 to 100 mg/kg, IG measured for 10 days by hematoxylin and eosin dye based light microscopy; type: organism-based; conditions: in vivo, po, 240 h, dose 500-100 mg/kg, time 10 day
[14] = target: T2, Mitogen-activated protein kinase kinase kinase 7 (Homo sapiens) (UniProt O43318); experiment: Inhibition of TAK1 (unknown origin) assessed as inhibition rate at 10 uM by SPR analysis relative to control
T2 sequence (whole entry): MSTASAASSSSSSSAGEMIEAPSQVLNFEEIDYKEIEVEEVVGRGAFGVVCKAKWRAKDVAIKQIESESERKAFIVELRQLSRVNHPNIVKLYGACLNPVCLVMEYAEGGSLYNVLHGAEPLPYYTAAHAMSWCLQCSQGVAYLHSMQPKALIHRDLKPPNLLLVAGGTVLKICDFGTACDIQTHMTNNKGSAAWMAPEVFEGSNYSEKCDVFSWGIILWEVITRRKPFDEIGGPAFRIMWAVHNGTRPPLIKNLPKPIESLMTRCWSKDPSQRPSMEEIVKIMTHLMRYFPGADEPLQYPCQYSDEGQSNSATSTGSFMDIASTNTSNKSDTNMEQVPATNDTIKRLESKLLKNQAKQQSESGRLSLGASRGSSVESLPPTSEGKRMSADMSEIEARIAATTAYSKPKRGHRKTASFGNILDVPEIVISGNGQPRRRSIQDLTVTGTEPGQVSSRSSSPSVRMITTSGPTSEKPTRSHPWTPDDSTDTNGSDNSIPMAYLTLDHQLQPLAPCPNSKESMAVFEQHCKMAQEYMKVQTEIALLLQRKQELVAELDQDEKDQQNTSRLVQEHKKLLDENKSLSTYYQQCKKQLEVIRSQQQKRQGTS

Mus musculus [15] = experiment: Antiinflammatory activity against LPS-induced acute lung injury C57 mouse model assessed as decrease in LPS-induced TNFalpha level in blood at 20 mg/kg, po thrice at 12 hrs interval; type: functional, organism-based
[16] = target: Mitogen-activated protein kinase 8 (Mus musculus) (UniProt Q91Y86); experiment: Binding affinity to JNK1 in protein lysate of LPS-stimulated mouse J774A.1 cells assessed as protein degradation in presence of pronase at 10 to 40 uM measured after overnight incubation by immunoblotting based drug affinity responsive target stability (DARTS) assay; type: subcellular; conditions: J774.1, dose 10-40 µM
Chain of Mitogen-activated protein kinase 8 (Mus musculus) (Q91Y86 whole entry): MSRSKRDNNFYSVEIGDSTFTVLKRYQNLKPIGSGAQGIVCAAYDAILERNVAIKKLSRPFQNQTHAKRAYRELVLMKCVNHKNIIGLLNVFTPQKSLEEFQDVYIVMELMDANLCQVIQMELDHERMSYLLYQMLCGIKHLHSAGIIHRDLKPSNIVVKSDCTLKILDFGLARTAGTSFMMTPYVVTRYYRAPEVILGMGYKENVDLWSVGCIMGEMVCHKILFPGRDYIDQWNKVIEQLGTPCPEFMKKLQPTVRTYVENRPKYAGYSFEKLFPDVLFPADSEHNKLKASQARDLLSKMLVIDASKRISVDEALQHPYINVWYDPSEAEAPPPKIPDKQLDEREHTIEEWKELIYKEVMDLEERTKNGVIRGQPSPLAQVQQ

Chain of c-Jun N-terminal kinase (Mus musculus) (Q61831 whole entry, looked up): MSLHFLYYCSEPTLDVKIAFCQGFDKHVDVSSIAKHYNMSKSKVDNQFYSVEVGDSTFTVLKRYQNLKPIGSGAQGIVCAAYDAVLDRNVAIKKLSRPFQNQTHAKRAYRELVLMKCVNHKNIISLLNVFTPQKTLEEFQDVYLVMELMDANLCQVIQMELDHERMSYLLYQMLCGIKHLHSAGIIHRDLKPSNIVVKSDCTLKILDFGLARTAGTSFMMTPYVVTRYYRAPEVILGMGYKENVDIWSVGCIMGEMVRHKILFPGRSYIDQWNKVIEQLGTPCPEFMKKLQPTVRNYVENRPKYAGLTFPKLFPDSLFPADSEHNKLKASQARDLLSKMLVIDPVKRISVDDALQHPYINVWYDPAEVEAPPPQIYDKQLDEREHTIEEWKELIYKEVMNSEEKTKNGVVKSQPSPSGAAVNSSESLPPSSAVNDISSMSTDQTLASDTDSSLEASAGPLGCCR
Chain of c-Jun N-terminal kinase (Mus musculus) (Q91Y86 whole entry, looked up): as the sequence (Q91Y86 whole entry) above
Chain of c-Jun N-terminal kinase (Mus musculus) (Q9WTU6 whole entry, looked up): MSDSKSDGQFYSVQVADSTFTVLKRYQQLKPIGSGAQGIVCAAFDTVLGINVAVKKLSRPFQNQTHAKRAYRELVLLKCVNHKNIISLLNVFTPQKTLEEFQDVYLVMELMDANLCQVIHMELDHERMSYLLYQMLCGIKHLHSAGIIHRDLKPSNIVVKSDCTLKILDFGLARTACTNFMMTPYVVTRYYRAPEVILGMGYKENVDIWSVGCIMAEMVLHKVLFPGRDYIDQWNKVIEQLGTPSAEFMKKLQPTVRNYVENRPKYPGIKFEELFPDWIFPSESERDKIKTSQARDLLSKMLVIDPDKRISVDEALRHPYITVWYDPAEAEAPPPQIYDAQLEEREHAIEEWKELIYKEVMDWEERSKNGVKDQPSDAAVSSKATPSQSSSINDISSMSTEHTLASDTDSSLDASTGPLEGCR

COc1cc2nccc(Oc3ccc(NC(=O)c4nn(-c5ccc(C)cc5)c(=O)cc4C)cc3)c2cc1OC
Activity (Mus musculus [1]): Active
AUCt [2]: 7792.708 ng·h/mL
Activity (Mus musculus [3]): Active
inhibition [4]: Active
half-life [5]: 1.15 h
Activity (J774.A1): Dose-Dependent Effect
Activity [6]: Non-Toxic
viability at 24 h, 10 µM [7]: > 80%
Activity (Mus musculus [8]): Active
inhibition [9]: -3.77%
Activity (THP-1): Dose-Dependent Effect
Activity (Mus musculus [10]): inactive
Activity (Mus musculus [11]): Active
Activity (Mus musculus [12]): Active
Activity [13]: Non-Toxic
inhibition [14]: 8.85%
Activity (Mus musculus [15]): Active
Activity [16]: inactive
